{"source": "patent US20100286139A1", "about": "“AMINO PYRAZOLE COMPOUND” (ELI LILLY AND COMPANY, priority 2008, published 2010)", "target": "T1, JAK2 (Homo sapiens, UniProt O60674)", "T1 construct": "endogenous in cells; host or cells: TF-1 (human erythroid leukemia) cells, EPO-stimulated", "T1 sequence (O60674 whole entry)": "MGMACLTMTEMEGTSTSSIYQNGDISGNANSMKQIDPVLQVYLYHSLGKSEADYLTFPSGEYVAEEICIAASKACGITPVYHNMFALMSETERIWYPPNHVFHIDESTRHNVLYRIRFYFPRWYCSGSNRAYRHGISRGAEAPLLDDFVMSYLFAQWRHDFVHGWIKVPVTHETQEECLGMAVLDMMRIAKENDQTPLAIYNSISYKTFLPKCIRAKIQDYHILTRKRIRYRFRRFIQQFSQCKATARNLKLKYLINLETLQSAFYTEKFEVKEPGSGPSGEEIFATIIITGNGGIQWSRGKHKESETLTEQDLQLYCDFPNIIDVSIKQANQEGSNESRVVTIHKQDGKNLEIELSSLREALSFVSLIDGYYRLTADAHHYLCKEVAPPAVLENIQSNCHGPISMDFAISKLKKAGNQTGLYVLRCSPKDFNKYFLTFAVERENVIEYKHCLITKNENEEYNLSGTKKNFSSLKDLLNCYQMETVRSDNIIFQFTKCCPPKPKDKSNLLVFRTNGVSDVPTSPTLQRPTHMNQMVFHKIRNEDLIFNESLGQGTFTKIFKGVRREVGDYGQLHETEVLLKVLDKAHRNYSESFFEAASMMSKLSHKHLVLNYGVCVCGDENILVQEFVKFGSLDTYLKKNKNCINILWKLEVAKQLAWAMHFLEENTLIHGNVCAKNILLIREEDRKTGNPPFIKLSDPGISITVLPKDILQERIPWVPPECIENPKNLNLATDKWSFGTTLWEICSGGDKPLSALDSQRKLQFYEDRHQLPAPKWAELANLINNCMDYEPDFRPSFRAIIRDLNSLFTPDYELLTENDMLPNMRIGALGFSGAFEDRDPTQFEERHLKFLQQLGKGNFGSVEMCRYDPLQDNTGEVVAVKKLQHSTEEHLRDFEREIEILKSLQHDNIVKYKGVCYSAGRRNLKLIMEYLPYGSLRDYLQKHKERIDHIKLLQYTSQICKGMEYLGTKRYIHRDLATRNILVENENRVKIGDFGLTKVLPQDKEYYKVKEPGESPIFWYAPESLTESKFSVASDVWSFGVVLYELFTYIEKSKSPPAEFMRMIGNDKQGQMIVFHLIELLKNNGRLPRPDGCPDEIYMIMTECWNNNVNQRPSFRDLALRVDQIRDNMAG", "test": "JAK2 EPO-TF1/pSTAT5 cell-based assay (Cellomics ArrayScan HCS)", "settings": "TF-1 cells, EPO 1.6 U/mL stimulated, n=4; read-out: relative IC50, inhibition of pSTAT5", "description": "JAK2 EPO-TF1/pSTAT5 cell-based assay mimics the constitutive activation of JAK2-STAT5 in erythroid progenitor cells, which drives the overproduction of red blood cells, a marker of polycythemia vera (PV).\nTF-1 (human erythroid leukemia) cells are maintained in RPMI 1640 (RPMI-1640 was developed by Moore et. al. at Roswell Park Memorial Institute. The formulation is based on the RPMI-1630 series of media utilizing a bicarbonate buffering system and alterations in the amounts of amino acids and vitamins.) with 10% fetal bovine serum (FBS), 0.075% sodium bicarbonate, 1 mM sodium pyruvate, 1× antibiotic/antimycotic (Invitrogen, Carlsbad, Calif.) and 0.45% glucose. The medium is supplemented with GM-CSF (granulocyte-macrophage colony-stimulating factor) at a final concentration of 2 ng/mL. Cells are kept at 37° C. with 5% CO2. Cells are starved in serum free medium to remove endogenous growth factors. TF-1 cells are counted and cells are collected to seed 2×10^7 cells per 96-well plate at a density of 2×10^5 cells per well. […]\nTo perform the assay, serum-starved cells are collected and washed once with unsupplemented RPMI 1640 medium. […] An aliquot of 200 μL of 1 to 10 dilution of Mouse anti-pSTAT5 (pY694) Alexa Fluor 647® in fluorescence activated cell sorting (FACS) buffer is added to the cells. […]"}
{"smiles": "Cc1cc(Nc2cc(CN3CCOCC3)c3nc(C)c(Cc4ccc(Cl)cc4F)n3n2)n[nH]1", "note": "[3-(4-Chloro-2-fluorobenzyl)-2-methyl-N-(5-methyl-1H-pyrazol-3-yl)-8-(morpholinomethyl)imidazo[1,2-b]pyridazin-6-amine]", "values": [{"measurement": "IC50", "result": 0.033, "unit": "µM"}]}
